Data reported in US20060171983A1, “Use of Vitamin D receptor activators or Vitamin D analogs to treat cardiovascular disease” (priority 2003, published 2006).
Entries after “also recorded” stand apart in the source; their conditions may differ. Where two headings read alike, the source gives them in different places.

Assays:
PAI-1 [1] = assay: PAI-1 Western blot in primary culture of human coronary artery smooth muscle cells; assay type: cell-based; conditions: 24 hr
Experimental: Human coronary artery smooth muscle cells were incubated with paricalcitol or calcitriol at the indicated concentration for 24 hr at 37° C. Samples were solubilized in SDS-PAGE sample buffer, and the protein content in each sample was determined by the Bio-Rad dye-binding protein assay. Samples were resolved by SDS-PAGE using a 4-12% gel, and proteins were electrophoretically transferred to PVDF membrane for Western blotting. The membrane was blotted for 1 h at 25° C. with 5% nonfat dry milk in PBS-T and then incubated with a mouse anti-PAI-1 monoclonal antibody in PBS-T overnight at 4° C. The membrane was washed with PBS-T and incubated with a horseradish peroxidase-labeled […] antibody for 1 h at 25° C. The membrane was then incubated with detection reagent (SuperSignal WestPico). The specific bands were visualized by exposing the paper to Kodak BioMax films.

[2] = test system: bovine vascular smooth muscle cells (SMC); conditions: 10^-7 to 10^-9 M, in vitro; cited from earlier work
human CASMC = assay: 45Ca uptake into primary culture of human coronary artery smooth muscle cells
Experimental: Primary cultured human CASMC were grown to >80% confluence and used within five passages. Cells were treated with drugs for 5 days in the appropriate medium, and then changed back to base medium (N1: DMEM containing 1.8 mM Ca^+2 and 0.9 mM PO−4) containing 0.2 μCi/ml ^45Ca for 24 hr. Afterwards, cells were washed with PBS three times and radioactivity measured by liquid scintillation.

[3] = Observational cohort study of hospitalization outcomes in hemodialysis patients; assay type: in vivo, human; conditions: for median number of days spent in the hospital (hospital days per year) / median number of hospitalizations in a year: hemodialysis patients, FIG. 2; for fewer hospital days compared to the No Vitamin D group / fewer hospitalizations compared to the No Vitamin D group: regression analysis, FIG. 3
Excerpt: This study was expanded to include patients who received no Vitamin D receptor activator treatment. [“Improved hospitalization outcomes in hemodialysis patients treated with paricalcitol.” J. Melnick, et al., abstract book from World Congress of Nephrology, Jun. 8-12, 2003, Berlin.

[4] = Active calcium transport in duodenum ex vivo; design: species or system rat; conditions: uremic rats with SHPT
[5] = assay type: in vivo, rat
Experimental: It is clinically important to suppress elevated serum PTH levels in ESRD patients with established secondary hyperparathyroidism (SHPT) independent of hypercalcemia. Moreover, the 5/6 uremic rat model has effectively predicted the clinical profile of vitamin D analogues with respect to PTH and hypercalcemia. Thus, a direct comparison was conducted of paricalcitol (PARI) and doxercalciferol (DOX) in male Sprague Dawley rats subjected to 5/6 nephrectomy (surgical ablation) placed on 4 weeks of a high phosphorous diet (0.9% phos., 0.6% Ca) to establish SHPT. On Day 0, rats received vehicle (VEH; 5% ethanol, 95% propylene glycol; 0.4 ml/kg; IP) or drug (0.083, 0.17, 0.33, 0.66 mcg/kg; n=7-10/group) 3 times/week for 12 days. Blood samples were collected 24 hr post dose (Day 13). Day 0 values (mean±SEM) for: creatinine (VEH vs sham) were 1.02±0.05 vs 0.48±0.01 mg/dL; PTH, 1320±185 vs 178±11 pg/ml; blood ionized calcium (iCa; 1.26±0.01 vs 1.30±0.01 mmol/L); phosphorous (8.70±0.34 vs 7.36±0.09 mg/dL). In VEH, the ratio of Day 13/Day 0 iCa values declined to 0.93±0.02 vs 1.02±0.01 for sham; PTH and phosphorous tended to increase. […] PARI had no effect on iCa at 0.33 mcg/kg whereas the iCa ratio increased modestly to 1.05±0.02*# at 0.66 mcg/kg, less than that of DOX. The Day 13/Day 0 PTH ratios for DOX fell to 0.43±0.12, 0.26±0.06*, and 0.22±0.11* in response to 0.18, 0.33, 0.66 mcg/kg, respectively, while PARI decreased PTH ratios to 0.37±0.07*, 0.33±0.06*, 0.13±0.02*. Serum phosphorus was not affected in any treatment group. […] Thus, in the uremic rat with established SHPT, DOX suppresses serum PTH levels concomitant with dose-dependent elevations in ionized calcium greater than those caused by equal doses of. PARI. At these doses, PARI effectively reduces PTH without eliciting dose-dependent changes in ionized blood calcium. *=p<0.05 vs. VEH ANOVA; # p<0.05 unpaired t test DOX vs PARI

[6] = Vascular calcification in 5/6 nephrectomized uremic rats; assay type: in vivo, rat; conditions: for elevation of iCa: 0.67 μg/kg; for Ca content in aorta compared to vehicle / phosphorus content in aorta compared to vehicle / 45Ca uptake in aorta rings compared to vehicle: 0.67 μg/kg i.p. 3 times/week for 2 weeks; for 45Ca uptake in aorta rings compared to vehicle: rings 3 days in 45Ca
Experimental: The 5/6 nephrectomized rats were obtained from Charles River Labs. (Wilmington, Mass.). Two weeks after nephrectomy, rats were put on a diet containing 0.9% phosphorous and 0.6% calcium for 4 weeks, followed by treatment with vehicle (5% ethanol+95% propylene glycol, 0.4 ml/kg), paricalcitol or doxercalciferol at 0.67 μg/kg, i.p., 3 times/week, for 2 weeks. Twenty-four hours after the last dosing, blood was collected via tail vein under ketamine anesthesia (50 mg/kg) and aorta collected for calcification studies. […] After the aortas were removed in a sterile manner from the rats, the aventitia was gently removed and each aorta was washed three times with medium. A segment of each aorta was processed for calcium and phoshphorus determination. A separate portion of each aorta was denuded, cut into 2-3-mm rings and placed in DMEM containing 0.2 μCi/ml ^45Ca for 3 days at 37° C. Afterwards, aortic rings were washed, dried, weighed, and then dissolved to determine radioactivity. […] Both paricalcitol and doxercalciferol at 0.67 μg/kg elevated iCa (˜25%) and suppressed PTH (>90%).

PAI-1 [7] = assay: PAI-1 mRNA expression in human CASMC (control); assay type: cell-based; conditions: dose-dependent manner
[8] = test system: renin mRNA expression in As4.1-hVDR cells; assay: Northern blot of renin mRNA expression in As4.1-hVDR cells; assay type: cell-based
Excerpt: (§1) Using an in vitro cell culture system, the activity of paricalcitol to suppress renin gene expression was examined using previously published techniques (1,25-Dihydroxyvitamin D3 is a negative endocrine regulator of the renin-angiotensin system, J. Clin. Invest., July 2002). […] This inhibitory effect is confirmed by renin promoter-luciferase reporter assays, which examine the activity of paricalcitol to suppress renin gene transcription.
(§2) In the present study, an investigation was made of the in vitro and in vivo activity of paricalcitol, a FDA-approved low calcemic vitamin D analog, to inhibit renin biosynthesis. To this end, As4.1-hVDR cells, a JG cell-like cell line stably transfected with human VDR, was treated with paricalcitol or 1,25(OH)2D3 at doses ranging from 10^−10 to 10^−7 M for 24 hours, and its renin-inhibiting activity was assessed by Northern blot analyses; the cells were also transfected with renin gene promoter-luciferase reporter plasmid, and luciferase activity was determined in the presence and absence of paricalcitol or 1,25(OH)2D3.

[9] = Renin mRNA expression in vitamin D-deficient rats; assay type: in vivo, rat; conditions: 0.003-0.3 μg/kg i.p. three times per week, 2 weeks
Experimental: (§3) Weanling Sprague-Dawley male rats housed in an environment free of UV light were fed a 0.4% Ca, 0.3% P, vitamin D-deficient diet for 5 weeks, then switched to a 0.02% Ca, 0.5% P, vitamin D-deficient diet for 21 days. Rats were dosed with 0.003, 0.01, 0.03, and 0.3 μg/kg of paricalcitol, i.p., three times per week, for the final 2 weeks. A control group of animals was given vehicle only (5% ethanol/95% propylene glycol), and untreated, age-matched animals on normal diet (0.5% Ca, 0.4% P) served as normal peer control. Twenty-four hours after the last dose, the rats were anesthetized with ketamine (100 mg/kg), cardiac bled, killed by CO2, tissues collected for RNA extraction and real-time RT-PCR analysis, and serum taken for determination of calcium, phosphorus, and PTH.

renin [10] = assay: Renin mRNA expression in vitamin D-deficient rats; assay type: in vivo, rat; conditions: 0.003-0.3 μg/kg i.p. three times per week, 2 weeks
Experimental: as §3

renin gene promoter = assay: Renin promoter-luciferase reporter assay; assay type: cell-based
Excerpt: as §1, §2

CYP24A1 = CYP24A1 mRNA expression in human CASMC (control); assay type: cell-based; conditions: dose-dependent manner
24(OH)ase = assay: Effect of drugs on the expression of 24(OH)ase; assay type: cell-based; conditions: relative to calcitriol
Experimental: Two observations may be noted in these studies: (1) 100% inhibition of growth was never achieved even at 1 μM of any of the test compound. Confocal microscopy studies confirm that, although these drugs are potent in inducing the translocation of VDR from cytoplasm to nucleus, not all cells respond to VDRAs even after 2 h of exposure, which may explain the <100% inhibition. […] Paricalcitol is usually dosed approximately 4 fold higher than calcitriol in the clinical situation, which may translate into a 4-fold higher potency in regulating the function of smooth muscle cells.

[11] = Historical cohort of vascular access changes in HD patients with AV fistula; assay type: in vivo, human
Experimental: Methods: A historical cohort of 2112 adult patients new to HD, with an AV fistula as the initial primary vascular access were followed over a 35-month period (January 1999 thru November 2001) using a dialysis provider database. Patients were treated with Zemplar or no vitamin D therapy; patients receiving Zemplar therapy received at least 10 doses and remained on the same therapy. Descriptive summary statistics were used to summarize baseline characteristics and the total number of vascular access changes per year between treatment modalities. In addition, regression models were used to evaluate the association between Zemplar or no vitamin D therapy and the total number of vascular access changes per year.

[12] = Dobrez et al. 2004; cited from earlier work
renin [13] = assay: In vivo renin inhibition in CD-1 male mice; design: species or system mouse; conditions: 1.5 and 3.0 μg/kg i.p. 3 times a week for three weeks
[14] = 1-100 nM, cells in N1 or 60% N1/40% P1 media, 5 days
[15] = 0.18 mcg/kg IP 3 times/week for 12 days
[16] = 0.33 mcg/kg IP 3 times/week for 12 days
[17] = 0.66 mcg/kg IP 3 times/week for 12 days

SMILES | potency in reducing the PAI level (PAI-1 [1]) | effect on 45Ca uptake (human CASMC; [14]) | median number of days spent in the hospital (hospital days per year) [3] | median number of hospitalizations in a year [3] | fewer hospital days compared to the No Vitamin D group [3] | fewer hospitalizations compared to the No Vitamin D group [3] | active calcium transport in duodenum ex vivo [4] | Day 13/Day 0 PTH ratio [5, 15] | Day 13/Day 0 PTH ratio [5, 16] | Day 13/Day 0 PTH ratio [5, 17] | elevation of iCa [6] | Ca content in aorta compared to vehicle [6] | phosphorus content in aorta compared to vehicle [6] | 45Ca uptake in aorta rings compared to vehicle [6] | also measured
C=C1/C(=C\C=C2/CCC[C@]3(C)[C@@H]([C@H](C)CCCC(C)(C)O)CC[C@@H]23)C[C@@H](O)C[C@@H]1O [calcitriol] | equally potent | no significant effects | 10.6 days | 2.2 | 7.7 days | no statistical difference | – | – | – | – | – | – | – | – | calcification of bovine vascular smooth muscle cells [2]: dose dependent increase
C=C1/C(=C\C=C2/CCC[C@]3(C)[C@@H]([C@H](C)/C=C/[C@H](C)C(C)C)CC[C@@H]23)C[C@@H](O)C[C@@H]1O [doxercalciferol] | – | – | – | – | – | – | dose-dependent increase | 0.43±0.12 | 0.26±0.06 | 0.22±0.11 | ~25% | 1.0 fold | 17 fold | 40 fold | –
C[C@H](/C=C/[C@H](C)C(C)(C)O)[C@H]1CC[C@H]2/C(=C/C=C3C[C@@H](O)C[C@H](O)C3)CCC[C@]12C [paricalcitol] | equally potent | no significant effects | 5.2 days | 1.5 | 17.5 days | 1.2 | no effect | 0.37±0.07 | 0.33±0.06 | 0.13±0.02 | ~25% | 1.6 fold | no significant difference | no significant difference | PAI-1 mRNA expression (PAI-1 [7]): suppressed; renin-inhibiting potency relative to calcitriol / 1,25(OH)2D3 [8]: comparable to that of 1,25(OH)2D3; also recorded: a bit more potent than calcitriol; effect on renin mRNA expression ([8]; 10^-10 to 10^-7 M, 24 hours): suppresses; also recorded: dose-dependently inhibits; calcium [9]: did not result in a significant change; serum PTH [9]: reduced serum PTH dose-dependently; renal renin mRNA expression (renin [10]): normalized; potency in suppressing renin gene promoter activity relative to calcitriol / 1,25(OH)2D3 (renin gene promoter): comparable to that of 1,25(OH)2D3; also recorded: at least as potent as calcitriol; effect on renin gene transcription (renin gene promoter; As4.1-hVDR cells): suppresses; CYP24A1 mRNA expression (CYP24A1): stimulated; potency on stimulating the expression of 24(OH)ase (24(OH)ase): less potent than calcitriol; effect on 45Ca uptake (human CASMC; 100 nM, cells in N1 medium or different doses of P1 medium (20-60%)): did not show a significant effect; total number of vascular access changes (average) ([11]; HD patients with AV fistula, p=0.0034 vs no D): 0.6 changes per year; more vascular access changes in No D group than in Zemplar patients ([11]; negative binomial regression, p=0.038): 28%; hospitalizations related to cardiovascular events and non-infectious inflammations compared with calcitriol [12]: fewer hospitalizations; body weight (renin [13]): no effect; levels of blood ionized calcium (renin [13]): only slightly increased
